Reference: US7094761B2, “Methods and compounds for prevention and treatment of elevated intraocular pressure and related conditions” (Theratechnologies Inc., priority 2002, dated 2006)

Test system: intraocular pressure in piglets
Details: for IC50: pig, in vivo; for effect on basal intraocular pressure: piglet, peptide in saline applied topically as drops, monitored for 15 min
Experimental: Method: Newborn pigs (1–3 days old) were anesthetized with 1.5% halothane for tracheostomy and catheterization of the right femoral vein for drug administration. Animals were ventilated by means of a Harvard small animal respirator with a gas mixture of 25% O2 and 75% N2. Halothane was discontinued after surgery and immediately thereafter the animals were sedated with Alpha-chloralose (50 mg/kg i.v.) and paralyzed with pancuronium (0.1 mg/kg i.v.). Animals were placed under radiant warmer to keep their body temperature at 37° C. A butterfly needle (24G) is inserted into the anterior chamber of both eyes and connected to a Statham pressure transducer connected to a Gould multichannel recorder. Intraocular pressure is then allowed to stabilize for 15 minutes. […] The intraocular pressure was monitored for 15 minutes at which time a maximal effect was observed.
Peptides dissolved in saline were applied to the eye after 15 min of stabilization of intraocular pressure and changes in pressure were monitored for 15 min. The deviation (negative for hypotension) was plotted as a function of time (min).
The experiments were done as above, except that intraocular pressure was plotted versus the dose of peptide used.

Row | IC50 [nM] | Compound | effect on basal intraocular pressure
1 | 342 | CC[C@H](C)[C@H](N)C(=O)N[C@@H](Cc1ccccc1)C(=O)N[C@@H](CC(=O)O)C(=O)N[C@@H](CO)C(=O)N[C@H](C(=O)N[C@@H](CCC(=O)O)C(=O)N[C@@H](CS)C(=O)N[C@@H](Cc1c[nH]c2ccccc12)C(=O)O)[C@@H](C)O [Peptide 1405, NH2-Ile Phe Asp Ser Thr Gln Cys Trp-OH] | produced a decrease in ocular pressure
2 | 86.4 | H-HIICSPLR-OH [Peptide 1402, NH2-His Ile Ile Cys Ser Pro Leu Arg-OH] | produced a decrease in ocular pressure
3 | – | NH2-Phe Ser Leu Thr Gln Lys Tyr Cys-OH (H-FSLTQKYC-OH) [Peptide 1401] | produced a decrease in ocular pressure
